Experimental data published in patent US6737383B1, “Herbicidal oxadiazolidines” (priority 1999, dated 2004).

Experiments:
[1] = system: bedstraw; assay: Test B pre/postemergence bedstraw; type: in vivo, Galium aparine; conditions: Preemergence
In short: (§1)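 Herbicidal effect was estimated by eye on a ten-point control scale after plants spent twelve to sixteen days in a greenhouse following soil or foliar treatment. Foliar sprays targeted plants at one to four leaves; all doses were formulated in a non-phytotoxic solvent with surfactant.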

[2] = system: blackgrass; assay: Test B pre/postemergence blackgrass; type: in vivo, Alopecurus myosuroides
In short: as §1

[3] = system: surinam grass; assay: Test B pre/postemergence surinam grass; type: in vivo, Brachiaria decumbens
In short: as §1

[4] = system: cocklebur; assay: Test B pre/postemergence cocklebur; type: in vivo, Xanthium strumarium
In short: as §1

[5] = system: corn; assay: Test B pre/postemergence corn; type: in vivo, Zea mays
In short: as §1

[6] = system: crabgrass; assay: Test B pre/postemergence crabgrass; type: in vivo, Digitaria sanguinalis
In short: as §1

[7] = system: giant foxtail; assay: Test B pre/postemergence giant foxtail; type: in vivo, Setaria faberii
In short: as §1

[8] = system: morningglory; assay: Test B pre/postemergence morningglory; type: in vivo, Ipomoea hederacea
In short: as §1

[9] = system: pigweed; assay: Test B pre/postemergence pigweed; type: in vivo, Amaranthus retroflexus
In short: as §1

[10] = system: rape; assay: Test B pre/postemergence rape; type: in vivo, Brassica napus
In short: as §1

[11] = system: soybean; assay: Test B pre/postemergence soybean; type: in vivo, Glycine max
In short: as §1

[12] = system: sugar beet; assay: Test B pre/postemergence sugar beet; type: in vivo, Beta vulgaris
In short: as §1

[13] = system: velvetleaf; assay: Test B pre/postemergence velvetleaf; type: in vivo, Abutilon theophrasti
In short: as §1

[14] = system: wheat; assay: Test B pre/postemergence wheat; type: in vivo, Triticum aestivum
In short: as §1

[15] = system: wild oat; assay: Test B pre/postemergence wild oat; type: in vivo, Avena fatua
In short: as §1

[16] = system: purple nutsedge; assay: Test B pre/postemergence purple nutsedge; type: in vivo, Cyperus rotundus
In short: as §1

[17] = system: rice; assay: Test B flood test rice; type: in vivo, Oryza sativa
In short: (§2)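 Read-out is a visual response score from 0 (no effect) to 10 (complete control), assigned by comparison with untreated controls. Treatment was applied at the 2-leaf stage, and plants stayed in the greenhouse for twelve to sixteen days before scoring.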

[18] = system: smallflower flatsedge; assay: Test B flood test smallflower flatsedge; type: in vivo, Cyperus difformis
In short: as §2

[19] = system: duck salad; assay: Test B flood test duck salad; type: in vivo, Heteranthera limosa
In short: as §2

[20] = system: bamyardgrass; assay: Test B flood test barnyardgrass; type: in vivo, Echinochloa crus-galli
In short: as §2

[21] = Postemergence, Rate 62 g/ha, scale of 0 to 10, 0 is no effect, 10 is complete control
[22] = Postemergence, Rate 125 g/ha, scale of 0 to 10 where 0 is no effect and 10 is complete control
[23] = Postemergence, Rate 250 g/ha, scale of 0 to 10, 0 is no effect, 10 is complete control
[24] = Postemergence, Rate 500 g/ha, scale of 0 to 10 where 0 is no effect and 10 is complete control
[25] = Preemergence, Rate 62 g/ha, scale 0 to 10 (0 no effect, 10 complete control)
[26] = Preemergence, Rate 125 g/ha, scale of 0 to 10 where 0 is no effect and 10 is complete control
[27] = Preemergence, Rate 500 g/ha, scale of 0 to 10 where 0 is no effect and 10 is complete control
[28] = Rate 62 g/ha, flood test species, Pre-emergence, visual evaluation after twelve to sixteen days
[29] = Rate 125 g/ha, under heading Pre-emergence, flood test species, visual evaluation after twelve to sixteen days
[30] = Rate 250 g/ha, Pre-emergence (flood test species), scale 0 to 10, 0 is no effect, 10 is complete control
[31] = Rate 500 g/ha, Pre-emergence section of Table B, 0 to 10 scale (0 no effect, 10 complete control)

## CC(C)N(C(=O)n1oc(=O)n(CC[N+](=O)[O-])c1=O)c1ccc(F)cc1F [Compound 591]
[1]; Rate 62 g/ha, scale 0 to 10 (0 no effect, 10 complete control)
  Bedstraw plant response rating: 0
[1]; Rate 125 g/ha, scale of 0 to 10 where 0 is no effect and 10 is complete control
  Bedstraw plant response rating: 0
[2]; [21]
  Blackgrass plant response rating: 0
[2]; [22]
  Plant response rating, Blackgrass: 0
[2]; [23]
  Blackgrass plant response rating: 0
[2]; [24]
  Plant response rating, Blackgrass: 0
[2]; [25]
  Blackgrass plant response rating: 0
[2]; [26]
  Blackgrass plant response rating: 0
[2]; Preemergence, Rate 250 g/ha
  Blackgrass plant response rating (0 to 10 scale): 0
[2]; [27]
  Blackgrass plant response rating: 0
[3]; [21]
  B. signalgrass plant response rating: 0
[3]; [22]
  Plant response rating, B. signalgrass: 0
[3]; [23]
  B. signalgrass plant response rating: 0
[3]; [24]
  Plant response rating, B. signalgrass: 0
[3]; [25]
  B. signalgrass plant response rating: 0
[3]; [26]
  B. signalgrass plant response rating: 0
[3]; Preemergence, Rate 250 g/ha
  B. signalgrass plant response rating (0 to 10 scale, 0 is no effect, 10 is complete control): 0
[3]; [27]
  B. signalgrass plant response rating: 0
[4]; [21]
  Cocklebur plant response rating: 0
[4]; [22]
  Plant response rating, Cocklebur: 0
[4]; [23]
  Cocklebur plant response rating: 0
[4]; [24]
  Plant response rating, Cocklebur: 0
[4]; [25]
  Cocklebur plant response rating: 0
[4]; [26]
  Cocklebur plant response rating: 0
[4]; Preemergence, Rate 250 g/ha
  Cocklebur plant response rating (0 to 10 scale): 0
[4]; [27]
  Plant response rating, Cocklebur: 0
[5]; [21]
  Corn plant response rating: 0
[5]; [22]
  Plant response rating, Corn: 0
[5]; [23]
  Corn plant response rating: 0
[5]; [24]
  Plant response rating, Corn: 0
[5]; [25]
  Corn plant response rating: 0
[5]; [26]
  Corn plant response rating: 0
[5]; Preemergence, Rate 250 g/ha
  Corn plant response rating (0 to 10 scale): 0
[5]; [27]
  Plant response rating, Corn: 0
[6]; [21]
  Crabgrass plant response rating: 0
[6]; [22]
  Plant response rating, Crabgrass: 0
[6]; [23]
  Crabgrass plant response rating: 0
[6]; [24]
  Plant response rating, Crabgrass: 0
[6]; [25]
  Crabgrass plant response rating: 0
[6]; [26]
  Crabgrass plant response rating: 0
[6]; [27]
  Plant response rating, Crabgrass: 0
[7]; [21]
  Giant foxtail plant response rating: 0
[7]; [22]
  Plant response rating, Giant foxtail: 0
[7]; [23]
  Giant foxtail plant response rating: 0
[7]; [24]
  Plant response rating, Giant foxtail: 0
[7]; [25]
  Giant foxtail plant response rating: 0
[7]; [26]
  Giant foxtail plant response rating: 0
[7]; [27]
  Plant response rating, Giant foxtail: 0
[8]; [21]
  Morningglory plant response rating: 0
[8]; [22]
  Plant response rating, Morningglory: 0
[8]; [23]
  Morningglory plant response rating: 2
[8]; [24]
  Plant response rating, Morningglory: 3
[8]; [25]
  Morningglory plant response rating: 0
[8]; [26]
  Morningglory plant response rating: 0
[8]; [27]
  Plant response rating, Morningglory: 0
[9]; [22]
  Plant response rating, Redroot pigweed: 0
[9]; [23]
  Redroot pigweed plant response rating: 0
[9]; [24]
  Plant response rating, Redroot pigweed: 0
[9]; [25]
  Redroot pigweed plant response rating: 0
[9]; [26]
  Redroot pigweed plant response rating: 0
[9]; [27]
  Plant response rating, Redroot pigweed: 0
[10]; [21]
  Rape plant response rating: 0
[10]; [22]
  Plant response rating, Rape: 0
[10]; [23]
  Rape plant response rating: 0
[10]; [24]
  Plant response rating, Rape: 0
[10]; [25]
  Rape plant response rating: 0
[10]; [26]
  Rape plant response rating: 0
[10]; [27]
  Plant response rating, Rape: 0
[11]; [22]
  Plant response rating, Soybean: 1
[11]; [23]
  Soybean plant response rating: 2
[11]; [24]
  Plant response rating, Soybean: 2
[11]; [25]
  Soybean plant response rating: 0
[11]; [26]
  Soybean plant response rating: 0
[11]; [27]
  Plant response rating, Soybean: 0
[12]; [22]
  Plant response rating, Sugarbeets: 0
[12]; [23]
  Sugarbeets plant response rating: 0
[12]; [24]
  Plant response rating, Sugarbeets: 0
[12]; [25]
  Sugarbeets plant response rating: 0
[12]; [26]
  Sugarbeets plant response rating: 0
[12]; [27]
  Plant response rating, Sugarbeets: 0
[13]; [22]
  Plant response rating, Velvetleaf: 0
[13]; [23]
  Velvetleaf plant response rating: 0
[13]; [24]
  Plant response rating, Velvetleaf: 0
[13]; [25]
  Velvetleaf plant response rating: 0
[13]; [26]
  Velvetleaf plant response rating: 0
[13]; [27]
  Plant response rating, Velvetleaf: 0
[14]; [22]
  Plant response rating, Wheat: 0
[14]; [23]
  Wheat plant response rating: 0
[14]; [24]
  Plant response rating, Wheat: 0
[14]; [25]
  Wheat plant response rating: 0
[14]; [26]
  Wheat plant response rating: 0
[14]; [27]
  Plant response rating, Wheat: 0
[15]; [22]
  Plant response rating, Wild oats: 0
[15]; [23]
  Wild oats plant response rating: 0
[15]; [24]
  Plant response rating, Wild oats: 0
[15]; [25]
  Wild oats plant response rating: 0
[15]; [26]
  Wild oats plant response rating: 0
[15]; [27]
  Plant response rating, Wild oats: 0
[16]; [21]
  Nutsedge plant response rating: 0
[16]; [22]
  Plant response rating, Nutsedge: 0
[16]; [23]
  Nutsedge plant response rating: 0
[16]; [24]
  Plant response rating, Nutsedge: 0
[16]; [25]
  Nutsedge plant response rating: 0
[16]; [26]
  Nutsedge plant response rating: 0
[16]; [27]
  Plant response rating, Nutsedge: 0
[17]; [28]
  Plant response rating, Rice (0 to 10 scale, 0 is no effect, 10 is complete control): 0
[17]; [29]
  Rice plant response rating (0 to 10 scale, 0 is no effect, 10 is complete control): 0
[17]; [30]
  Rice plant response rating: 0
[17]; [31]
  Rice plant response rating: 0
[18]; [28]
  Plant response rating, S. Flatsedge (0 to 10 scale, 0 is no effect, 10 is complete control): 0
[18]; [29]
  S. Flatsedge plant response rating (0 to 10 scale, 0 is no effect, 10 is complete control): 0
[18]; [30]
  S. Flatsedge plant response rating: 0
[18]; [31]
  S. Flatsedge plant response rating: 0
[19]; [28]
  Plant response rating, Ducksalad (0 to 10 scale, 0 is no effect, 10 is complete control): 0
[19]; [29]
  Ducksalad plant response rating (0 to 10 scale, 0 is no effect, 10 is complete control): 0
[19]; [30]
  Ducksalad plant response rating: 0
[19]; [31]
  Ducksalad plant response rating: 0
[20]; [28]
  Plant response rating, Barnyardgrass (0 to 10 scale, 0 is no effect, 10 is complete control): 0
[20]; [29]
  Barnyardgrass plant response rating (0 to 10 scale, 0 is no effect, 10 is complete control): 0
[20]; [30]
  Barnyardgrass plant response rating: 0
[20]; [31]
  Barnyardgrass plant response rating: 0
